# Measured values as given in patent US9288989B2, “Synergistic weed control from applications of penoxsulam and acetochlor” (Dow AgroSciences LLC, priority 2013, dated 2016).
# Values joined by “and” are separate entries in the source; they are usually repeats but may differ in a detail not shown here. Equal values may be shown once.
# Assays:
# ECHCO = assay: Pre-emergence field trial, weed control, ECHCO; format: in vivo, Echinochloa colonum (L.) Link
# Source text: (§1) The (a) penoxsulam or an agriculturally acceptable salt thereof is mixed with or applied in combination with (b) acetochlor or an agriculturally acceptable salt thereof in an amount sufficient to induce a synergistic herbicidal effect. […] As described in the Herbicide Handbook of the Weed Science Society of America, Ninth Edition, 2007, p. 429, “‘synergism’ [is] an interaction of two or more factors such that the effect when combined is greater than the predicted effect based on the response to each factor applied separately.” Synergistic in the herbicide context can mean that the use of (a) and (b) as defined above results in an increased weed control effect compared to the weed control effects that are possible with the use of (a) or (b) alone. In some embodiments, the damage or injury to the undesired vegetation caused by the compositions and methods disclosed herein is evaluated using a scale from 0% to 100%, when compared with the untreated control vegetation, wherein 0% indicates no damage to the undesired vegetation and 100% indicates complete destruction of the undesired vegetation.
# (§2) In Colby's equation, the value E corresponds to the effect (plant damage or injury) that is to be expected if the activity of the individual compounds is additive. If the observed effect is higher than the value E calculated according to the Colby equation, then a synergistic effect is present according to the Colby equation.
# (§3) Field trials were conducted with applications made in the area of naturally occurring weed populations in multiple countries. The soil or water was treated prior to the emergence of target plants. All treatments were applied using a randomized complete block trial design, with 3-5 replications per treatment.
# (§4) Treatments consisted of penoxsulam and acetochlor applied alone and in combination. Spray solutions were prepared using an appropriate amount of dilution to treat the area of the plots based on use rates and water volumes necessary based on a per hectare basis. Spray solutions were prepared and applied with the specified active ingredients in single and two-way combinations to be able to perform Colby synergy and safening calculations. Formulated products were applied to the soil with a backpack sprayer equipped with flat fan nozzles calibrated to deliver from 200 to 300 L/ha at a normal spray height above the soil, at spray pressures ranging from 200 to 400 kilopascals (kPa). Formulated products were applied into flooded rice paddy by calculating the area to be treated, calculating the amount of active ingredient necessary to treat the area at the specified rates, then mixing the treatments in water to apply 8 L/ha of water to the plots.
# (§5) Colby's equation was used to determine the herbicidal effects expected from the mixtures, as described above. The results were measured at the evaluation intervals provided in Table 1 after the first application of the compositions. […] The herbicide tank-mix combinations tested, application rates and ratios employed, plant species tested, and results are given below.
# CYPRO = assay: Pre-emergence field trial, weed control, CYPRO; format: in vivo, Cyperus rotundus L.; settings: 35 days
# Protocol: (§6) The (a) penoxsulam or an agriculturally acceptable salt thereof is mixed with or applied in combination with (b) acetochlor or an agriculturally acceptable salt thereof in an amount sufficient to induce a synergistic herbicidal effect. […] As described in the Herbicide Handbook of the Weed Science Society of America, Ninth Edition, 2007, p. […] In some embodiments, the damage or injury to the undesired vegetation caused by the compositions and methods disclosed herein is evaluated using a scale from 0% to 100%, when compared with the untreated control vegetation, wherein 0% indicates no damage to the undesired vegetation and 100% indicates complete destruction of the undesired vegetation.
# as §2, with “equation. […]” for “equation.”
# (§7) Colby's equation was used to determine the herbicidal effects expected from the mixtures, as described above. The results were measured at the evaluation intervals provided in Table 1 after the first application of the compositions. […]
# POLPE = assay: Pre-emergence field trial, weed control, POLPE; format: in vivo, Polygonum persicaria L.; settings: 14 days
# Protocol: as §6
# as §2, with “equation. […]” for “equation.”
# as §7
# GALAP = assay: Pre-emergence field trial, weed control, GALAP; format: in vivo, Galium aparine L.
# Source text: as §1, §2, §3
# as §4, with “Formulated products were applied into flooded rice paddy by calculating the area to be treated, calculating the amount of active ingredient necessary to treat the area at the specified rates, then mixing the treatments in water to apply 8 L/ha of water to the plots.” left out
# as §7
# AMARE = assay: Pre-emergence field trial, weed control, AMARE; format: in vivo, Amaranthus retroflexus; settings: 55 days
# Protocol: as §6
# as §2, with “equation. […]” for “equation.”
# as §7
# POLLA = assay: Pre-emergence field trial, weed control, POLLA; format: in vivo, Polygonum lapathifolium L.
# Source text: as §1, §2, §3, §4, §5
# corn (ZEAMX) = assay: Pre-emergence field trial, crop injury, corn; settings: in vivo
# Protocol: as §6
# as §2, with “equation. […]” for “equation.”
# Colby's equation was used to determine the herbicidal effects expected from the mixtures, as described above. The results were measured at the evaluation intervals provided in Table 2 after the first application of the compositions. […]
# VIOAR = assay: Pre-emergence field trial, weed control, VIOAR; format: in vivo, Viola arvensis Murr.; settings: 61 days
# Protocol: as §6
# as §2, with “equation. […]” for “equation.”
# as §7
# SOLNI = assay: Pre-emergence field trial, weed control, SOLNI; format: in vivo, Solanum nigrum
# Source text: as §1, §2, §3
# as §4, with “Formulated products were applied into flooded rice paddy by calculating the area to be treated, calculating the amount of active ingredient necessary to treat the area at the specified rates, then mixing the treatments in water to apply 8 L/ha of water to the plots.” left out
# as §7
# POLCO = assay: Pre-emergence field trial, weed control, POLCO; format: in vivo, Polygonum convolvulus L.
# Source text: as §1, §2, §3, §4, §5
# CHEAL = assay: Pre-emergence field trial, weed control, CHEAL; format: in vivo, Chenopodium album L.
# Source text: as §1, §2, §3
# as §4, with “Formulated products were applied into flooded rice paddy by calculating the area to be treated, calculating the amount of active ingredient necessary to treat the area at the specified rates, then mixing the treatments in water to apply 8 L/ha of water to the plots.” left out
# as §7
# TRBSS = assay: Pre-emergence field trial, weed control, TRBSS; format: in vivo, species of the genus Tribulus
# Source text: as §1, §2, §3, §4, §5
# [1] = 64 days, acetochlor 1900 g ai/ha
# [2] = 28 days, acetochlor 2300 g ai/ha
compound,measurement,setting,value
"CCOCN(C(=O)CCl)c1c(C)cccc1CC [Acetochlor, 2-chloro-N-(ethoxymethyl)-N-(2-ethyl-6-methylphenyl)acetamide]",Mean % weed control,"ECHCO; 20 days, acetochlor 15 g ai/ha",22.5%
same,Mean % weed control,"ECHCO; 35 days, acetochlor 15 g ai/ha",15%
same,Mean % weed control,CYPRO; acetochlor 15 g ai/ha,4.25%
same,Mean % weed control,POLPE; acetochlor 1400 g ai/ha,36.67%
same,Mean % weed control,"GALAP; 38 days, acetochlor 1900 g ai/ha",6.67%
same,Mean % weed control,GALAP; [1],10%
same,Mean % weed control,AMARE; acetochlor 2000 g ai/ha,0%
same,Mean % weed control,"POLLA; 14 days, acetochlor 2300 g ai/ha",20%
same,Mean % weed control,POLLA; [2],10% and 7.5%
same,Mean % weed control,"POLLA; 98 days, acetochlor 2300 g ai/ha",12.5%
same,Mean % crop injury,corn (ZEAMX),0%
same,Mean % weed control,VIOAR; acetochlor 1400 g ai/ha,0%
same,Mean % weed control,SOLNI; [1],13.33%
same,Mean % weed control,"SOLNI; 92 days, acetochlor 1900 g ai/ha",3.33%
same,Mean % weed control,POLCO; [2],5% and 12.5%
same,Mean % weed control,"CHEAL; 34 days, acetochlor 1400 g ai/ha",3.33%
same,Mean % weed control,"CHEAL; 61 days, acetochlor 1400 g ai/ha",36.67%
same,Mean % weed control,"TRBSS; 35 days, acetochlor 1800 g ai/ha",78%
same,Mean % weed control,"TRBSS; 49 days, acetochlor 1800 g ai/ha",63%
COc1cnc(OC)n2nc(NS(=O)(=O)c3c(OCC(F)F)cccc3C(F)(F)F)nc12 [Penoxsulam],Mean % weed control,"ECHCO; 20 days, penoxsulam 15 g ai/ha",38.75%
same,Mean % weed control,"ECHCO; 20 days, penoxsulam 20 g ai/ha",50%
same,Mean % weed control,"ECHCO; 35 days, penoxsulam 15 g ai/ha",55%
same,Mean % weed control,CYPRO; penoxsulam 20 g ai/ha,39.38%
same,Mean % weed control,POLPE; penoxsulam 20 g ai/ha,80%
same,Mean % weed control,"GALAP; 38 days, penoxsulam 20 g ai/ha",40%
same,Mean % weed control,"GALAP; 64 days, penoxsulam 20 g ai/ha",60%
same,Mean % weed control,AMARE; penoxsulam 12 g ai/ha,30%
same,Mean % weed control,"POLLA; 14 days, penoxsulam 15 g ai/ha",85%
same,Mean % weed control,"POLLA; 28 days, penoxsulam 15 g ai/ha",75%
same,Mean % weed control,"POLLA; 28 days, penoxsulam 20 g ai/ha",90%
same,Mean % weed control,"POLLA; 98 days, penoxsulam 15 g ai/ha",71.25%
same,Mean % weed control,VIOAR; penoxsulam 20 g ai/ha,0%
same,Mean % weed control,"SOLNI; 64 days, penoxsulam 20 g ai/ha",40%
same,Mean % weed control,"SOLNI; 92 days, penoxsulam 20 g ai/ha",30%
same,Mean % weed control,"POLCO; 14 days, penoxsulam 15 g ai/ha",85%
same,Mean % weed control,"POLCO; 14 days, penoxsulam 20 g ai/ha",87.5%
same,Mean % weed control,"POLCO; 28 days, penoxsulam 15 g ai/ha",65%
same,Mean % weed control,"POLCO; 28 days, penoxsulam 20 g ai/ha",77.5%
same,Mean % weed control,"CHEAL; 34 days, penoxsulam 20 g ai/ha",56.67%
same,Mean % weed control,"CHEAL; 61 days, penoxsulam 20 g ai/ha",50%
same,Mean % weed control,"TRBSS; 35 days, penoxsulam 5 g ai/ha",32%
same,Mean % weed control,"TRBSS; 35 days, penoxsulam 10 g ai/ha",38.5%
same,Mean % weed control,"TRBSS; 49 days, penoxsulam 5 g ai/ha",13%
same,Mean % weed control,"TRBSS; 49 days, penoxsulam 10 g ai/ha",32%
